Measured values as given in paper PMC4607647 (Bioorganic & medicinal chemistry letters, 2015).

Key:
Type in all cases: biochemical
[1] = target: LG-PARP10cat (Homo sapiens, UniProt Q53GL7, L926G); conditions: for increase in potency against LG-PARP10cat compared to 1: compared to parent dq scaffold 1
[2] = target: GFP-LG-PARP10 (Homo sapiens, UniProt Q53GL7, L926G); conditions: immunoprecipitated from HEK 293T cells, 6-alkyne-NAD+ substrate
[3] = target: T1, GFP-WT-PARP10 (Homo sapiens, UniProt Q53GL7); conditions: up to 100 μM; immunoprecipitated from HEK 293T cells, 6-alkyne-NAD+ substrate
T1 sequence (Q53GL7 1-1025): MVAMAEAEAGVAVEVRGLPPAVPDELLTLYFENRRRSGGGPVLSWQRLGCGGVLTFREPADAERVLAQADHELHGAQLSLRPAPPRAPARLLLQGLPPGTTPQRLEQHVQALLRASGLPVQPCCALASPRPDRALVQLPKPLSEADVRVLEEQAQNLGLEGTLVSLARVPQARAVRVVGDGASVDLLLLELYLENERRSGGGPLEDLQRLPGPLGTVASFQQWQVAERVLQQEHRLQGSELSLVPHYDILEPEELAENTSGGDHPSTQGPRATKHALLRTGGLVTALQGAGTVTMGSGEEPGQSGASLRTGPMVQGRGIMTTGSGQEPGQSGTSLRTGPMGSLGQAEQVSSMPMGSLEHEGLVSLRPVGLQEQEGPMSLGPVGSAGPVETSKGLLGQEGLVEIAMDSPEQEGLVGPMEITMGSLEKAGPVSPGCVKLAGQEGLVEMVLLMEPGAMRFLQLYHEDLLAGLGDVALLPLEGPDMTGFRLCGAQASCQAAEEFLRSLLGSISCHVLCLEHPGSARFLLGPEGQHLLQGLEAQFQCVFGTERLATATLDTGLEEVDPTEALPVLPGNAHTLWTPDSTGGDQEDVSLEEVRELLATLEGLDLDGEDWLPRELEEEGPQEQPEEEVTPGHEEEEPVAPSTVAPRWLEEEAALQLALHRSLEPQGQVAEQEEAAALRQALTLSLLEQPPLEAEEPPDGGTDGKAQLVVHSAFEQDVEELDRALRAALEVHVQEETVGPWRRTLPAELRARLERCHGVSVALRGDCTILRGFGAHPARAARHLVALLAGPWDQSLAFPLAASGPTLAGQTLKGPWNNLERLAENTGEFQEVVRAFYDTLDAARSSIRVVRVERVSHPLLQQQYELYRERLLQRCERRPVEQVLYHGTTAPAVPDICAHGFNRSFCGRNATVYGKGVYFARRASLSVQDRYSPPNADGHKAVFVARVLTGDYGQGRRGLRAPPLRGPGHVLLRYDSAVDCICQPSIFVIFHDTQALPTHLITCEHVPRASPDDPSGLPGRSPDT

Sequence of LG-PARP10cat (Q53GL7 806-1025 L926G): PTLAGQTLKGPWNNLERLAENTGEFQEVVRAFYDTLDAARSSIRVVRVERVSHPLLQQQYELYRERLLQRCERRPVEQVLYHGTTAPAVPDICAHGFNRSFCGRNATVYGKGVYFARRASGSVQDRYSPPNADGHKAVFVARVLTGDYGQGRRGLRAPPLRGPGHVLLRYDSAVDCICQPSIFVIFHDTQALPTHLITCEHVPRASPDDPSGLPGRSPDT
Sequence of GFP-LG-PARP10 (Q53GL7 whole entry L926G): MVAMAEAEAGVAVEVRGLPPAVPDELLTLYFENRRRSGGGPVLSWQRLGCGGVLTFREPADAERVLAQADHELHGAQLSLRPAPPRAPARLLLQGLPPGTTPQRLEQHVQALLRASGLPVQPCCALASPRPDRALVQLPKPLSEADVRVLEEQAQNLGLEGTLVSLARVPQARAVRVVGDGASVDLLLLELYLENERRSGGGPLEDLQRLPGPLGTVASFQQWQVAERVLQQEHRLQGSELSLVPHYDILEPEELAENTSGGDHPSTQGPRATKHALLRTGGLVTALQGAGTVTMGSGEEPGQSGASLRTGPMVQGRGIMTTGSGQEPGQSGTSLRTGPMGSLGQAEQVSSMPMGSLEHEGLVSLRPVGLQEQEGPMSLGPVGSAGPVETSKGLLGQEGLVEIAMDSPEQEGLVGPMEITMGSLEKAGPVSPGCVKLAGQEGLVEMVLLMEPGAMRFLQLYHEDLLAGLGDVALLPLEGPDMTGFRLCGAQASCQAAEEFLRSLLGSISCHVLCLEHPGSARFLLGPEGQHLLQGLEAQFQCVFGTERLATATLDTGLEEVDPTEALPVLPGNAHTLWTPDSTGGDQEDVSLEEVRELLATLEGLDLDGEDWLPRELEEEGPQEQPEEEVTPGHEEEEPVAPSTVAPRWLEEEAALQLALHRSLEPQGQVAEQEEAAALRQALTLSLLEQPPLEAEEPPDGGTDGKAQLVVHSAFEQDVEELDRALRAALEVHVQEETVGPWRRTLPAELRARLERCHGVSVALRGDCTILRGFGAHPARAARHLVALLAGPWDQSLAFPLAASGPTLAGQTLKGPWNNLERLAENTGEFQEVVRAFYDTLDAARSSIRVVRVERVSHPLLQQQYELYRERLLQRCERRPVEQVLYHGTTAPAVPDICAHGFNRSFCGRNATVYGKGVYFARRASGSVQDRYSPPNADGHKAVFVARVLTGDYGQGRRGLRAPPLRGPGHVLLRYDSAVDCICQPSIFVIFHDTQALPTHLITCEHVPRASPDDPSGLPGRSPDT

SMILES	increase in potency against LG-PARP10cat compared to 1 [1]	selectivity for LG-PARP10cat versus WT-PARP10cat ([1]; LG- versus WT-PARP10cat)	inhibition of auto-ADP-ribosylation of GFP-LG-PARP10 [2]	effect on auto-ADP-ribosylation of GFP-WT-PARP10 [3]
COc1ccc2c(c1)C(=O)NCC2 [Compound 8]	did not exhibit increased potency			
O=C1NCCc2ccc(Br)cc21 [Compound 4, 7-Br-dq]		greater than 10 fold	inhibited the auto-ADP-ribosylation of GFP-LG-PARP10 in a dose-dependent manner	unaffected
O=C1NCCc2ccc(O)cc21 [Compound 7]	did not exhibit increased potency			
O=C1NCCc2ccc(C(F)(F)F)cc21 [Compound 6]	2 fold			
Cc1ccc2c(c1)C(=O)NCC2 [Compound 5]	did not exhibit increased potency			
